Data reported in ChEMBL document CHEMBL3046274, “Toxicity of imidacloprid to developmental stages of Rhynchophorus ferrugineus (Curculionidae: Coleoptera): Laboratory and field tests” (Crop Prot, 2006).

Key:
Type in all cases: ADME
Leaf base [1] = assay: Drug uptake in Phoenix dactylifera (date palm) leaf base at 2.5 ml/l at 20 days post-treatment by UV spectrophotometric analysis; conditions: 480 h
Pinnae [2] = assay: Drug uptake in Phoenix dactylifera (date palm) pinnae at 2.5 ml/l at 10 days post-treatment by UV spectrophotometric analysis; conditions: 240 h
Pinnae [3] = assay: Drug uptake in Phoenix dactylifera (date palm) pinnae at 2.5 ml/l at 20 days post-treatment by UV spectrophotometric analysis; conditions: 480 h
Root [4] = assay: Drug uptake in Phoenix dactylifera (date palm) roots at 2.5 ml/l at 20 days post-treatment by UV spectrophotometric analysis; conditions: 480 h
Leaf base [5] = assay: Drug uptake in Phoenix dactylifera (date palm) leaf base at 2.5 ml/l at 10 days post-treatment by UV spectrophotometric analysis; conditions: 240 h
Rachis [6] = assay: Drug uptake in Phoenix dactylifera (date palm) rachis at 2.5 ml/l at 10 days post-treatment by UV spectrophotometric analysis; conditions: 240 h
Rachis [7] = assay: Drug uptake in Phoenix dactylifera (date palm) rachis at 2.5 ml/l at 20 days post-treatment by UV spectrophotometric analysis; conditions: 480 h
Gomar [8] = assay: Drug uptake in Phoenix dactylifera (date palm) gomar at 2.5 ml/l at 10 days post-treatment by UV spectrophotometric analysis; conditions: 240 h
Gomar [9] = assay: Drug uptake in Phoenix dactylifera (date palm) gomar at 2.5 ml/l at 20 days post-treatment by UV spectrophotometric analysis; conditions: 480 h
Root [10] = assay: Drug uptake in Phoenix dactylifera (date palm) roots at 2.5 ml/l at 10 days post-treatment by UV spectrophotometric analysis; conditions: 240 h

**Q.** How did the Drug uptake (Leaf base [1]) turn out when `O=[N+]([O-])NC1=NCCN1Cc1ccc(Cl)nc1` [IMIDACLOPRID] was run?
**A.** 0.38 ppm

**Q.** And the Drug uptake (Pinnae [2])?
**A.** 0.32 ppm

**Q.** And the Drug uptake (Pinnae [3])?
**A.** 1.21 ppm

**Q.** What about the Drug uptake (Root [4]) of the same compound?
**A.** 0.18 ppm

**Q.** What about the Drug uptake (Leaf base [5]) of the same compound?
**A.** 0.51 ppm

**Q.** What about the Drug uptake (Rachis [6]) of the same compound?
**A.** 1.31 ppm

**Q.** And the Drug uptake (Rachis [7])?
**A.** 1.11 ppm

**Q.** What about the Drug uptake (Gomar [8]) of the same compound?
**A.** 0.46 ppm

**Q.** And the Drug uptake (Gomar [9])?
**A.** 0.33 ppm

**Q.** And the Drug uptake (Root [10])?
**A.** 0.41 ppm
